Tests used:
Experiment in all cases: relative viability (nuclei count vs DMSO), 5 days (fraction); higher = more cells survive
NCI-H2009 = test system: NCI-H2009
Method in brief: (§1)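 Lung cancer cell lines were seeded in 1536-well plates and dosed by pin tool the next day, with either a single drug or a fixed anchor-drug dose combined with five library-drug doses (not always all listed) spaced in √10 steps. Five days later, one step fixed the cells and stained their nuclei (final 0.05% Triton X-100, 1% formaldehyde, 1 ug/ml Hoechst), and nuclei were counted on 4× images. Relative viability is the nuclei count in treated wells divided by the count in vehicle wells, and each value is the median of duplicate plates.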

NCI-H1993 = test system: NCI-H1993
Method in brief: as §1

SK-MES-1 = test system: SK-MES-1
Method in brief: as §1

NCI-H2170 = test system: NCI-H2170
Method in brief: as §1

NCI-H1355 = test system: NCI-H1355
Method in brief: as §1

NCI-H647 = test system: NCI-H647
Method in brief: as §1

NCI-H2228 = test system: NCI-H2228
Method in brief: as §1

NCI-H1793 = test system: NCI-H1793
Method in brief: as §1

COR-L23 = test system: COR-L23
Method in brief: as §1

COR-L 105 = test system: COR-L 105
Method in brief: as §1

NCI-H1755 = test system: NCI-H1755
Method in brief: as §1

EKVX = test system: EKVX
Method in brief: as §1

UMC-11 = test system: UMC-11
Method in brief: as §1

NCI-H322M = test system: NCI-H322M
Method in brief: as §1

NCI-H2347 = test system: NCI-H2347
Method in brief: as §1

HOP-62 = test system: HOP-62
Method in brief: as §1

NCI-H838 = test system: NCI-H838
Method in brief: as §1

PC-14 = test system: PC-14
Method in brief: as §1

NCI-H358 = test system: NCI-H358
Method in brief: as §1

HARA = test system: HARA
Method in brief: as §1

NCI-H1734 = test system: NCI-H1734
Method in brief: as §1

NCI-H1395 = test system: NCI-H1395
Method in brief: as §1

In the case of C[C@@H]1CN(CC(=O)Nc2ccc3c(c2)Cc2cccc(-c4cc(=O)cc(N5CCOCC5)o4)c2S3)C[C@H](C)O1 + Cc1nc(NC(=O)N2CCC[C@H]2C(N)=O)sc1-c1ccnc(C(C)(C)C(F)(F)F)c1 [Alpelisib] (partner 2 µM), the relative viability (NCI-H2009; first compound 0.04 µM) is reported as 1.23, the relative viability (NCI-H2009; first compound 0.1265 µM) is reported as 1.09 and the relative viability (NCI-H2009; first compound 0.4 µM) is reported as 1.09. It also gave a relative viability (NCI-H2009; first compound 4 µM) of 0.974, a relative viability (NCI-H1993; first compound 0.04 µM) of 0.641 and a relative viability (NCI-H1993; first compound 0.1265 µM) of 0.685. It also gave a relative viability (NCI-H1993; first compound 0.4 µM) of 0.592, a relative viability (NCI-H1993; first compound 4 µM) of 0.62 and a relative viability (SK-MES-1; first compound 0.04 µM) of 0.927. The relative viability (SK-MES-1; first compound 0.1265 µM) was 0.826, the relative viability (SK-MES-1; first compound 0.4 µM) was 1.02 and the relative viability (SK-MES-1; first compound 4 µM) was 0.813. It also gave a relative viability (NCI-H2170; first compound 0.1265 µM) of 0.761, a relative viability (NCI-H2170; first compound 0.4 µM) of 0.727 and a relative viability (NCI-H2170; first compound 4 µM) of 0.751. For the same compound, the relative viability (NCI-H1355; first compound 0.04 µM) was 0.856, the relative viability (NCI-H1355; first compound 0.1265 µM) was 0.759 and the relative viability (NCI-H1355; first compound 0.4 µM) was 0.862. For the same compound, the relative viability (NCI-H1355; first compound 4 µM) was 0.827, the relative viability (NCI-H647; first compound 0.04 µM) was 1.26 and the relative viability (NCI-H647; first compound 0.1265 µM) was 1.08. The relative viability (NCI-H647; first compound 0.4 µM) was 1.08, the relative viability (NCI-H647; first compound 4 µM) was 0.766 and the relative viability (NCI-H2228; first compound 0.04 µM) was 0.708. For the same compound, the relative viability (NCI-H2228; first compound 0.1265 µM) was 0.707, the relative viability (NCI-H2228; first compound 0.4 µM) was 0.754 and the relative viability (NCI-H2228; first compound 4 µM) was 0.485. The relative viability (NCI-H1793; first compound 0.04 µM) was 0.717, the relative viability (NCI-H1793; first compound 0.1265 µM) was 0.614 and the relative viability (NCI-H1793; first compound 0.4 µM) was 0.514. It also gave a relative viability (NCI-H1793; first compound 4 µM) of 0.585, a relative viability (COR-L23; first compound 0.04 µM) of 1.02 and a relative viability (COR-L23; first compound 0.1265 µM) of 0.802. The relative viability (COR-L23; first compound 0.4 µM) was 0.798, the relative viability (COR-L23; first compound 4 µM) was 0.727 and the relative viability (COR-L 105; first compound 0.04 µM) was 1.09. It also gave a relative viability (COR-L 105; first compound 0.1265 µM) of 0.998, a relative viability (COR-L 105; first compound 0.4 µM) of 1.04 and a relative viability (COR-L 105; first compound 4 µM) of 0.896. It also gave a relative viability (NCI-H1755; first compound 0.04 µM) of 0.934, a relative viability (NCI-H1755; first compound 0.1265 µM) of 0.88 and a relative viability (NCI-H1755; first compound 0.4 µM) of 0.845. For the same compound, the relative viability (NCI-H1755; first compound 4 µM) was 0.863, the relative viability (EKVX; first compound 0.04 µM) was 0.737 and the relative viability (EKVX; first compound 0.1265 µM) was 0.818. It also gave a relative viability (EKVX; first compound 0.4 µM) of 0.818, a relative viability (EKVX; first compound 4 µM) of 0.732 and a relative viability (UMC-11; first compound 0.04 µM) of 1.1. The relative viability (UMC-11; first compound 0.1265 µM) was 1.02, the relative viability (UMC-11; first compound 0.4 µM) was 1.1 and the relative viability (UMC-11; first compound 4 µM) was 0.737. For the same compound, the relative viability (NCI-H322M; first compound 0.04 µM) was 0.844, the relative viability (NCI-H322M; first compound 0.1265 µM) was 0.833 and the relative viability (NCI-H322M; first compound 0.4 µM) was 0.832. It also gave a relative viability (NCI-H322M; first compound 4 µM) of 0.839, a relative viability (NCI-H2347; first compound 0.04 µM) of 0.981 and a relative viability (NCI-H2347; first compound 0.1265 µM) of 1.09. For the same compound, the relative viability (NCI-H2347; first compound 0.4 µM) was 1.08, the relative viability (NCI-H2347; first compound 4 µM) was 0.979 and the relative viability (HOP-62; first compound 0.04 µM) was 1.08. The relative viability (HOP-62; first compound 0.1265 µM) was 1.05, the relative viability (HOP-62; first compound 0.4 µM) was 0.939 and the relative viability (HOP-62; first compound 4 µM) was 1.07. For the same compound, the relative viability (NCI-H838; first compound 0.04 µM) was 0.971, the relative viability (NCI-H838; first compound 0.1265 µM) was 0.913 and the relative viability (NCI-H838; first compound 0.4 µM) was 0.906. It also gave a relative viability (NCI-H838; first compound 4 µM) of 0.784, a relative viability (PC-14; first compound 0.04 µM) of 0.961 and a relative viability (PC-14; first compound 0.1265 µM) of 0.986. It also gave a relative viability (PC-14; first compound 0.4 µM) of 0.9, a relative viability (PC-14; first compound 4 µM) of 0.855 and a relative viability (NCI-H358; first compound 0.04 µM) of 1.12. For the same compound, the relative viability (NCI-H358; first compound 0.1265 µM) was 0.859, the relative viability (NCI-H358; first compound 0.4 µM) was 0.73 and the relative viability (NCI-H358; first compound 4 µM) was 0.491. For the same compound, the relative viability (HARA; first compound 0.04 µM) was 0.81, the relative viability (HARA; first compound 0.1265 µM) was 0.637 and the relative viability (HARA; first compound 0.4 µM) was 0.711. For the same compound, the relative viability (HARA; first compound 4 µM) was 0.78, the relative viability (NCI-H1734; first compound 0.04 µM) was 0.759 and the relative viability (NCI-H1734; first compound 0.1265 µM) was 0.673. The relative viability (NCI-H1734; first compound 0.4 µM) was 0.567, the relative viability (NCI-H1734; first compound 4 µM) was 0.746 and the relative viability (NCI-H1395; first compound 0.04 µM) was 0.958. The relative viability (NCI-H1395; first compound 0.1265 µM) was 1.08, the relative viability (NCI-H1395; first compound 0.4 µM) was 1.05 and the relative viability (NCI-H1395; first compound 4 µM) was 1.08.

Reference: the supplement of paper PMC10307832
